A melting point compilation (Tetko et al.; mined from patent text by program, amines drawn as free bases though some values may be those of a salt)

Row | Structure (SMILES) | melting point
1 | CCOC(=O)c1ccc(CCN(C)CCCC(C#N)(C(=O)OC)c2ccc(OC)c(OC)c2)cc1 (stereo unspecified) | 88 to 89 °C
2 | O=S(=O)(Nc1ccc2c(OCc3cccc(-c4ccc(F)cc4)c3)cccc2c1)C(F)(F)F | 110 to 112 °C
3 | S=c1[nH]ccn1CCc1cccs1 | 131 to 134 °C
4 | COc1cc(C)c(C(=O)c2c(Cl)cccc2Cl)cc1OCC1CC1 | 152 °C
5 | O=C(O)c1ccccc1NC1CCOC1=O (stereo unspecified) | 197 to 198 °C
6 | CCOC(=O)C(Cc1cc(OC)ccc1OC)C(C)=O (stereo unspecified) | 68 to 69 °C
7 | Cc1cc(-c2ccco2)ccc1-c1cc(C(F)(F)F)nn1-c1ccc(S(C)(=O)=O)cc1 | 175 to 177 °C
8 | CN1CCC2(C)c3cc(OC(=O)N4CCc5ccccc5C4)ccc3N(C)C12 (stereo unspecified) | 118 to 119 °C
9 | CC(C)n1nc(-c2sc(C(=O)NC3CC3)nc2-c2ccc(F)cc2)ccc1=O | 157 to 158 °C
10 | Cc1nc2c(cc1C(=O)NC(=N)N)CCCCC2Cl (stereo unspecified) | 153 to 156 °C
11 | COP(=O)(CC(=O)C(C)(C)Cc1ccccc1)OC | 39 to 46 °C
12 | O=C1NCCn2c1nc1c2CCCC1 | > 250 °C
13 | Cc1ccc(S(=O)(=O)N2CCC(Sc3ccc(Cl)cc3)CC2)cc1 | 112 to 114 °C
14 | CSC1=NC(C)C(c2ccccc2)=NN1 (stereo unspecified) | 159 to 160 °C
15 | O=C(O)C1CCCc2c(-c3ccc(C(F)(F)F)cc3)noc2C1 (stereo unspecified) | 222 to 225 °C
16 | CON(O)C(=O)c1ccccc1C(F)(F)F | 101 to 103 °C
17 | COc1cc2c(c(OC)c1OC)-c1ccc(NC(=O)C(C)NC(=O)OCc3ccccc3)cc1C(NC(C)=O)CC2 (stereo unspecified) | 140 to 141 °C
18 | CCC(=O)N=C(Nc1c(Cl)cccc1Cl)SC | 165 to 170 °C
19 | Nc1ccc(C23CC(C2)C(=O)N(C2CCCCC2)C3=O)cc1 | 139 °C
20 | CCOC(=O)c1c(N)sc2c1CN(C(=O)OCC)C2 | 154 to 156 °C
21 | CNC(=O)N(O)CCNC(=O)c1cccc(Oc2ccccc2)c1 | 161 to 162 °C
22 | COC(=O)C1=C(C)NC(C)=C(C#N)C1c1cccc(N)c1 (stereo unspecified) | 234 to 235 °C
23 | CC1C(=O)CSCC1=O | 131 to 133 °C
24 | CCOC(=O)c1cnc2c(C)csc2c1Cl | 113 to 115 °C
25 | O=C([C@@H]1CCCN1S(=O)(=O)c1ccc2ccccc2c1)N1C[C@@H](c2ccc(Cl)cc2)Sc2ccccc21 | 147 to 151 °C
26 | COc1nc(NC(=O)NS(=O)(=O)c2sccc2C(F)=C(F)C(F)(F)F)nc(OC)n1 | 149 to 153 °C

Row | Structure (SMILES) | melting point
27 | COC(=O)C1=Cc2cccc(C3CCN(S(=O)(=O)c4ccc(C)cc4)CC3)c2CCC1 | 169 to 173 °C
28 | CCN(CC)CCNC(=O)c1cc(Cl)c(N)cc1OCC(=O)c1ccccc1 | 153 to 154 °C
29 | COC(=O)COc1ncccc1Oc1cc(N2C(=O)C=C(C(F)(F)F)CC2=O)c(F)cc1Cl | 75.3 °C
30 | Cc1nc(-c2cc3c(Oc4ccc(Cl)cc4)cncc3s2)no1 | 120 to 121 °C
31 | Cc1ccc(S(=O)(=O)N[C@@H]2CCCC[C@H]2OCC(=O)O)cc1 (relative stereo) | 56 to 58 °C
32 | CC(=O)Nc1ccc(OCC(F)(F)F)cc1[N+](=O)[O-] | 117 to 118 °C
33 | NS(=O)(=O)c1ccc(NC(=O)c2ccccc2S)cc1 | 230 to 231 °C
34 | O=C(NC(Cc1ccccc1)C(=O)O)OCc1ccc(NC(=O)c2ccccc2)cc1 (stereo unspecified) | 197 to 198 °C
35 | COC(=O)c1cc(-c2ccc(OC)c(OC)c2)nc2ccc(Br)cc12 | 154 °C
36 | N#CC=CNc1ccnc(-c2ccncc2)n1 | 253 to 255 °C
37 | CN1C[C@@H](C(=O)OCc2ccccc2)N(C(=O)OCc2ccccc2)C1=O | 120 to 122 °C
38 | O=c1c2c(O)c(O)ccc2c2cc(O)c(O)cc2n1Cc1ccc(Cl)c(Cl)c1 | 246 °C
39 | O=C1COc2cc(NC(=O)C(=O)N3CCC(OCc4ccccc4)CC3)ccc2N1 | 232 to 236 °C
40 | CCOC(=O)/C=C/c1ccc(OCCOC)cc1Oc1cc(C(F)(F)F)ccc1[N+](=O)[O-] | 108 to 110 °C
41 | CC12CCC(C(=Cc3ccc(C=O)cc3)C1=O)C2(C)C (stereo unspecified) | 116 °C
42 | CC(Cn1nccn1)n1nnc2cc3c(=O)n(C(C)Cn4nccn4)nnc3cc2c1=O (stereo unspecified) | 194 to 195 °C
43 | O=C1CCC(N2Cc3c(OCc4nc5cc(CN6CCOCC6)ccc5s4)cccc3C2=O)C(=O)N1 (stereo unspecified) | 228 to 230 °C
44 | Cc1ccc(-c2cc(C)c3c(c2)C(C)CC(=O)N3)c(C)n1 (stereo unspecified) | 146 to 148 °C
45 | CC(C)C[C@H](NC(=O)OCc1ccccc1)C(=O)N[C@@H](Cc1cccs1)C(=O)CSCc1ccco1 | 106 to 107 °C
46 | COc1nc(C)nc(NC(=O)NS(=O)(=O)c2cc(OC(F)F)ccc2OC(F)F)n1 | 113 °C
47 | CC(C)(N)C(=O)NCCn1ccc2ncnc(Nc3ccc(Oc4cccc5sncc45)c(Cl)c3)c21 | 198 °C
48 | C=C(C)C(=O)Nc1cccc(OC(=O)NC(C)(C)CC(C)(C)C)c1 | 118 to 120 °C
49 | CN(C)S(=O)(=O)c1ccc2c(c1)CC(N1CCN(CCN3CCOC3=O)CC1)c1ccccc1S2 (stereo unspecified) | 164 to 165 °C
50 | N#Cc1cc2c3ccccc3n(Cc3ccccc3)c2s1 | 130 to 132 °C
51 | Clc1nc(NC2CC2)nc(C2CC2)n1 | 66 to 67 °C
52 | COC(=O)CC(=O)c1cncc(OC)n1 | 66 °C

Row | Structure (SMILES) | melting point
53 | CNC(=O)CC1CN=C(c2cc3cc(Oc4ccc(S(C)(=O)=O)cn4)cc(OC)c3[nH]2)S1 (stereo unspecified) | 207 to 209 °C
54 | CC(C)(C)OC(=O)N1CC(CCl)c2c1ccc1ccccc21 (stereo unspecified) | 107 to 108 °C
55 | O=C(O)c1nc(NCC(c2ccccc2)c2ccccc2)c2nc[nH]c2n1 | 241 to 249 °C
56 | CCCn1c(=O)c2c(nc(C=O)n2C)n(CCC)c1=O | 130 °C
57 | CN(c1cccc2cc(C3=NCC(CC(=O)O)S3)[nH]c12)S(=O)(=O)c1ccccn1 (stereo unspecified) | 231 to 233 °C
58 | Cc1cccc(C)c1NCCCCn1ccnc1 | 146 to 147 °C
59 | COc1ccc(CNc2nc(CCC(=O)O)nc3sc4c(c23)CCCC4)cc1Cl | 135 °C
60 | CCc1coc2cc(OCc3ccccc3)ccc12 | 69.5 to 70.5 °C
61 | Oc1c2c(nn1-c1ccccn1)CCc1cc(-c3ccccc3)ccc1-2 | 133 to 134 °C
62 | CCCOC1(C=CCCCCC(=O)O)C=CC=CC1 (stereo unspecified) | 52 to 53 °C
63 | Cc1cccc2ncc(C(=O)Nc3ccc(F)cc3)c(=O)n12 | 202 to 204 °C
64 | CCOC(=O)c1c(O)c2cccc3c2n(c1=O)CCO3 | 160 to 164 °C
65 | CC1(C=NO)OCCc2c1[nH]c1ccccc21 (stereo unspecified) | 176 to 178 °C
66 | Cc1cc2nc(Cl)c(Cl)nc2c(N)c1C | 178 to 180 °C
67 | CCn1c(COCc2ccccc2)nc(C(C)C)c1Sc1cccc(Cl)c1 | 99 to 100 °C
68 | N#Cc1ccc(S(F)(F)(F)(F)F)cc1[N+](=O)[O-] | 57 to 59 °C
69 | CCOC(=O)c1ccc(NC(=O)C=Cc2ccc(Cl)cc2)cc1 | 203 to 204 °C
70 | CCC[C@H]1CC[C@H]([C@H]2CC[C@H](C3=CC(=O)CCC3)CC2)CC1 | 96 °C
71 | CC(C)(C)[Si](C)(C)OC1CCCc2cnc3cc(O)ccc3c21 (stereo unspecified) | 248 to 250 °C
72 | COC(=O)CCCc1ccc(OCCN(C)c2nc3ccccc3o2)cc1 | 117 to 119 °C
73 | CC(Oc1cc(Oc2ccc(C(F)(F)F)cc2Cl)ccc1C#N)C(N)=O (stereo unspecified) | 134 to 137 °C
74 | COc1cc2ncnc(N3CCC(NCc4ccccn4)CC3)c2cc1OC | 151 to 155 °C
75 | CNc1ncc2c(=O)[nH]c(-c3ccccc3OC)nc2n1 | 265 to 267 °C
76 | CSCC(C)C(=O)N(C)c1sc(-c2cccnc2)nc1Cl (stereo unspecified) | 70 to 73 °C
77 | Cc1c(C(=O)N[C@H](C(=O)O)c2ccc(OCc3ccccc3)cc2)oc2cc(-c3ccc(Cl)cc3)ccc12 | 178 °C
78 | COC(=O)c1c(C(F)F)nc(C(F)(F)F)c(N=COCC2CO2)c1CC(C)C (stereo unspecified) | 41 to 43 °C

Row | Structure (SMILES) | melting point
79 | CN1Cc2c(-c3nc(CCl)cs3)ncn2-c2ccc(F)c(Cl)c2C1=O | 234 to 235 °C
80 | CSC1=Nc2ccccc2C2=NCC(CC3CNCCC34CCCCC4)N12 (stereo unspecified) | 114 to 115 °C
81 | C[C@@H]1S[C@@H](C(=O)Nc2ccc(CC3SC(=O)NC3=O)cc2)Cc2cc3c(cc2C1=O)OCO3 (stereo partly specified) | 139 to 144 °C
82 | CC1CN(c2ccc(Cl)cc2)N=C1NC(=O)C(F)(F)F (stereo unspecified) | 181 to 183 °C
83 | FC(F)(F)c1ccc(-c2cc(C(F)(F)F)n3cncc3n2)cc1 | 158 °C
84 | CSc1nn2c(N)cc(C)nc2c1S(=O)(=O)c1ccccc1C | > 250 °C
85 | CN(C)S(=O)(=O)Oc1c(Cl)cc(C(C)(C)C)cc1CNC(=O)OC(C)(C)C | 122 to 123 °C
86 | CCOc1ccccc1CNC(=O)[C@@H]1CCCN(c2cccc3c2C(=O)N(Cc2ccncc2)C3=O)C1 | 194 to 195 °C
87 | CCc1nc2c(N)nc3cc(OCC(=O)N4CCOCC4)ccc3c2n1CC1CCOCC1 | 245 to 247 °C
88 | O=C(Nc1ccc(Cl)cc1[N+](=O)[O-])NC1CCCCC1 | 115 to 116 °C
89 | CCc1cc(CC)c2sc3ccccc3c(=O)c2c1 | 60 °C
90 | COc1ccc(-c2nc(C(=O)O)cn2-c2ccc(OC)cc2)cc1 | 102 to 105 °C
91 | CN(CC(=O)O)C(=O)CCc1nc2c(F)c(F)cc(F)c2s1 | 138 to 140 °C
92 | CN1CC=C(C2=Cc3ccccc3Oc3ccc(Br)cc32)CC1 | 144 to 146 °C
93 | Cc1c(OC(F)F)ccnc1CSc1nc2ccccc2[nH]1 | 99 to 100 °C
94 | O=C(O)C=Cc1cccc2nnsc12 | 199 to 202 °C
95 | O=C(c1ccc(Cl)cc1)P1(=O)Oc2ccccc2-c2ccccc21 (stereo unspecified) | 125 to 131 °C
96 | CC(C)(C)OC(=O)N1CCN(c2cc(N)nc(N)n2)CC1 | 176 to 179 °C
97 | [N-]=[N+]=N[C@@H]1CN2C(=O)N(c3cc(Cl)nc(Cl)c3)C(=O)[C@@]2(Cc2ccc(OC(F)(F)F)cc2)C1 | 140 °C
98 | COc1ccc2c(CNCCCCCCCCCCC(=O)O)cc3cc4c(cc3c2c1)OCO4 | 146 to 148 °C
99 | O=Cc1cc2ccccc2nc1I | 150 to 152 °C
100 | O=C1CCC(=O)N1Cc1nc2sc3c(c2c(-c2ccc(Cl)cc2)c1Cl)CCN(Cc1ccccc1)C3 | 254 to 255 °C
101 | CN(c1cccc(-c2ccnc3c(C#N)cnn23)c1)S(C)(=O)=O | 193 to 195 °C
